Reference: ChEMBL document CHEMBL3217743, “Reduction of acyl glucuronidation in a series of acidic 11-hydroxysteroid dehydrogenase type 1 (11-HSD1) inhibitors: the discovery of AZD6925” (Medchemcomm, 2012)
The source made the active and inactive calls. The rule behind the calls is not given here.

Assays:
[1] = Fraction unbound in mouse plasma by equilibrium dialysis technique; type: ADME, cell-free
[2] = Fraction unbound in dog plasma by equilibrium dialysis technique; type: ADME, cell-free, Canis lupus familiaris
[3] = Fraction unbound in human plasma by equilibrium dialysis technique; type: ADME, cell-free
[4] = Apparent permeability from apical to basolateral side in MDCK cells at 10 uM; type: ADME, cell-based, Canis lupus familiaris; settings: dog
[5] = Apparent permeability from basolateral to apical side in MDCK cells at 10 uM; type: ADME, cell-based, Canis lupus familiaris; settings: dog
[6] = Plasma clearance in mouse at 1 to 3 mg/kg; type: ADME, organism-based; parameters: dose 1-3 mg/kg
[7] = Plasma clearance in dog at 1 to 3 mg/kg; type: ADME, organism-based, Canis lupus familiaris; parameters: dose 1-3 mg/kg
[8] = Half life in mouse at 1 to 3 mg/kg, iv; type: ADME, organism-based; parameters: dose 1-3 mg/kg, route intravenous; settings: in vivo
[9] = Half life in rat at 1 to 3 mg/kg, iv; type: ADME, organism-based; parameters: dose 1-3 mg/kg, route intravenous; settings: in vivo
[10] = Half life in mouse at 1 to 3 mg/kg, po; type: ADME, organism-based; parameters: dose 1-3 mg/kg, route oral; settings: in vivo
[11] = Half life in rat at 1 to 3 mg/kg, po; type: ADME, organism-based; parameters: dose 1-3 mg/kg, route oral; settings: in vivo
[12] = Drug metabolism in human hepatocytes assessed as compound remaining by LC-MS/MS analysis; type: ADME, cell-based, Hepatocyte
[13] = Drug excretion in bile duct cannulated rat bile assessed as compound remaining by HPLC analysis; type: ADME, tissue-based; settings: in vivo
[14] = target: T1, Glucocorticoid receptor (Homo sapiens) (UniProt P04150); test: Activity at glucocorticoid receptor (unknown origin)
T1 sequence (whole entry): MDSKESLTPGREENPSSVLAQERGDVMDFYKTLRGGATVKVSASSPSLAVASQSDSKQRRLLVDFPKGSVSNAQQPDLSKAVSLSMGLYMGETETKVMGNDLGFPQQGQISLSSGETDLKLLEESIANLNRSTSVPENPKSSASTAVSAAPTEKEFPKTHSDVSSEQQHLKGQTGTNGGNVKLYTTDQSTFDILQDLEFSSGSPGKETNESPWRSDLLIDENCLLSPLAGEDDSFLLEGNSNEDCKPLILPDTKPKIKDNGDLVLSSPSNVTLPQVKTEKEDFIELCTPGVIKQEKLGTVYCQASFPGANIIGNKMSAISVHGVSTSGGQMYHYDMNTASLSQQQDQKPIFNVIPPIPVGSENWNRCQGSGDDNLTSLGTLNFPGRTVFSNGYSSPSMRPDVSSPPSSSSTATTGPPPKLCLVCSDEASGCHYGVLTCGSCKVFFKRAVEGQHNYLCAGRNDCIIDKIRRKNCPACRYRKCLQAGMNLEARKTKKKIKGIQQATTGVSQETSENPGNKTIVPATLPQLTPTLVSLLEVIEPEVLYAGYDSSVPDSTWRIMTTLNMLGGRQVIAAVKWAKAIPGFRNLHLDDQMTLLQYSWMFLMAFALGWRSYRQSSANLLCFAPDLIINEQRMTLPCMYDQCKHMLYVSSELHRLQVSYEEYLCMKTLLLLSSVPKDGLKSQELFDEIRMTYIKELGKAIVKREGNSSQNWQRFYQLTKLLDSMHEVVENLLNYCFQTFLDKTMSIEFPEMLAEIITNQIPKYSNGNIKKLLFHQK

[15] = target: T2, Mineralocorticoid receptor (Homo sapiens) (UniProt P08235); test: Activity at mineralocorticoid receptor (unknown origin)
T2 sequence (whole entry): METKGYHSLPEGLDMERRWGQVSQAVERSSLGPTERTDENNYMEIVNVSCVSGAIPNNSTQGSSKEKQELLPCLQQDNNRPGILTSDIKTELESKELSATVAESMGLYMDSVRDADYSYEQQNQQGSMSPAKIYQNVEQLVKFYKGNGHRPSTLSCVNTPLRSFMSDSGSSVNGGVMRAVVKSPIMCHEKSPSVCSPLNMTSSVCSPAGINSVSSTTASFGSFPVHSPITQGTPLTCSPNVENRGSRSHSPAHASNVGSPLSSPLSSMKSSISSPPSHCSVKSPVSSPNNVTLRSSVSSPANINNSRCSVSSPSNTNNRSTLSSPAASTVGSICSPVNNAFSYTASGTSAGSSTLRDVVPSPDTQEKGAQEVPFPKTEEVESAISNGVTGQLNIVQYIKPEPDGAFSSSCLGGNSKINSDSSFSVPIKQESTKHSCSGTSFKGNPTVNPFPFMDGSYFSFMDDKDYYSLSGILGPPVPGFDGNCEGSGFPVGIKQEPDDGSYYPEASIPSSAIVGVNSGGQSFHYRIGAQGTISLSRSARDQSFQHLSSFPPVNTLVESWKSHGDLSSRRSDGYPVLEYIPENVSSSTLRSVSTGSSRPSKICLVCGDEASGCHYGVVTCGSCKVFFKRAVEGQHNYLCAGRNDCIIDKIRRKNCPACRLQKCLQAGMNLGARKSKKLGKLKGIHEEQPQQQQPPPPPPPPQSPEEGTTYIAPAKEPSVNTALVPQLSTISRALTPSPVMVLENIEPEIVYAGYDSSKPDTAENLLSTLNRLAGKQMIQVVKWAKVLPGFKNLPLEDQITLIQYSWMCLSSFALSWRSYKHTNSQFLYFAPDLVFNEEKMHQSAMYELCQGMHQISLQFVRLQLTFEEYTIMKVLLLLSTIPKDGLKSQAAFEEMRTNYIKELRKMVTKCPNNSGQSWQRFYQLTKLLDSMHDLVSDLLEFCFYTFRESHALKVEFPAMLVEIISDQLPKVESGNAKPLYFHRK

L5178Y = test: Mutagenicity in mouse L5178Y cells by mouse lymphoma assay; type: toxicity, cell-based
[16] = target: Sigma non-opioid intracellular receptor 1 (Homo sapiens, UniProt Q99720); test: Inhibition of sigma-1 receptor (unknown origin)
Sigma non-opioid intracellular receptor 1, sequence (Q99720 whole entry): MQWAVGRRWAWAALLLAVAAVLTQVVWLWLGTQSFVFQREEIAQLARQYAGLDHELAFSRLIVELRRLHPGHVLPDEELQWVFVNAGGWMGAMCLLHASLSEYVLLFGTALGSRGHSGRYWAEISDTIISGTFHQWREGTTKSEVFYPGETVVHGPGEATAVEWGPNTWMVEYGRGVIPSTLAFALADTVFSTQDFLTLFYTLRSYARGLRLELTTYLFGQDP

[17] = Inhibition of N-terminal 6-His-tagged dog full length 11beta-HSD1 assessed as conversion of cortisone to cortisol after 25 mins by HTRF assay; parameters: species or system Canis lupus familiaris
Mus musculus = test: Ex vivo inhibition of 11beta-HSD1-mediated conversion of [3H]-cortisone to [3H]-cortisol in C57Bl6J mouse liver at 30 mg/kg, po by scintillation counting analysis; type: functional, organism-based; parameters: dose 30 mg/kg
[18] = Octanol-buffer partition coefficient, log D of the compound at pH 7.4 after 30 mins by shake-flask method; type: physicochemical
[19] = Fraction unbound in rat plasma by equilibrium dialysis technique; type: ADME, cell-free
[20] = Clearance in rat hepatocytes measured per 10^6 cells; type: ADME, cell-based, Hepatocyte; settings: read-out: CLH
CYP2D6 = CYP2D6 (Homo sapiens, UniProt P10635); test: Inhibition of CYP2D6 (unknown origin) at 10 uM relative to control; type: ADME
CYP2D6, sequence (P10635 whole entry): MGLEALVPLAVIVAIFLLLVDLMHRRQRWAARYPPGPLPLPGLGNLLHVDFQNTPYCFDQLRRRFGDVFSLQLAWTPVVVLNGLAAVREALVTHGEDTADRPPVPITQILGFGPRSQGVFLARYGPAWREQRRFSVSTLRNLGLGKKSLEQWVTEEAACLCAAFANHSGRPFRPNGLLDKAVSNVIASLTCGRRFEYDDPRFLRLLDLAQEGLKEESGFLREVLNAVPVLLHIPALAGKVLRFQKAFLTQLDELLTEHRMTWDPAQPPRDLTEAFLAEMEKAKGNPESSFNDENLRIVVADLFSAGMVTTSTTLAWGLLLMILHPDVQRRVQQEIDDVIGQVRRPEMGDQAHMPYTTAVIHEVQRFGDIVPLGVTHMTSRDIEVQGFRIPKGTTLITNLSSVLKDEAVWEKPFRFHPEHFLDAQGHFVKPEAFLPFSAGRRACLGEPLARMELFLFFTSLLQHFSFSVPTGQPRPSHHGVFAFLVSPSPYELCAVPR

CYP2C9 = CYP2C9 (Homo sapiens, UniProt P11712); test: Inhibition of CYP2C9 (unknown origin) at 10 uM relative to control; type: ADME
CYP2C9, sequence (P11712 whole entry): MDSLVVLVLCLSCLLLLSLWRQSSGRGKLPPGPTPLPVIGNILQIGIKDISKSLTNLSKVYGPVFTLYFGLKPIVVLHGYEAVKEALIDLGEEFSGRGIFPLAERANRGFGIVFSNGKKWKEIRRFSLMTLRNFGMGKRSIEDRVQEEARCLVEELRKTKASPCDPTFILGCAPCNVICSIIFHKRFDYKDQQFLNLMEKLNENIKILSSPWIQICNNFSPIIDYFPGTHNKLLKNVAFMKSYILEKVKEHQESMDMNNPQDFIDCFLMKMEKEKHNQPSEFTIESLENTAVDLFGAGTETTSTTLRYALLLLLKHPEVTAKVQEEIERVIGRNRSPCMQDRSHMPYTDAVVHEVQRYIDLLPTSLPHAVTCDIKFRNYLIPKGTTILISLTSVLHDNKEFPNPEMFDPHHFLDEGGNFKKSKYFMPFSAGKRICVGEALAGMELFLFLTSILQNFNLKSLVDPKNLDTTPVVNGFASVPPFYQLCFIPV

CYP2C19 = CYP2C19 (Homo sapiens, UniProt P33261); test: Inhibition of CYP2C19 (unknown origin) at 10 uM relative to control; type: ADME
CYP2C19, sequence (P33261 whole entry): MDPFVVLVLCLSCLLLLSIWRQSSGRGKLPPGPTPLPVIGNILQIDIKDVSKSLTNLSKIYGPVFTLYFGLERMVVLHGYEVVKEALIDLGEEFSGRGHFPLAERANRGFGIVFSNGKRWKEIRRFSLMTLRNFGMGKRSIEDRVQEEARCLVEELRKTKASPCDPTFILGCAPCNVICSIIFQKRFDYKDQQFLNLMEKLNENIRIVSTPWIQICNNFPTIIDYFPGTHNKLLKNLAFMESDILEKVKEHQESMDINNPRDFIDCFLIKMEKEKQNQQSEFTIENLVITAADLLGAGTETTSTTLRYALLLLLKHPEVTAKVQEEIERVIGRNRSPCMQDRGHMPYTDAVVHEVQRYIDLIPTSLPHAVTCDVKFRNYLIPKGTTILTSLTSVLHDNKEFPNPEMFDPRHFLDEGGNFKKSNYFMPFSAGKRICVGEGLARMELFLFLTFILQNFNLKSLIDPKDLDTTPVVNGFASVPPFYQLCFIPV

[21] = Aqueous solubility of crystalline form of compound in phosphate buffer at pH 7.4 after 24 hrs by LC-UV analysis; type: physicochemical

fraction unbound [1]: 0.023 | fraction unbound [2]: 0.015 | fraction unbound [3]: 0.011 | Papp A→B at 10 µM [4]: 210 nm/s | Papp B→A at 10 µM [5]: 130 nm/s | clearance [6]: 0.54 L/h/kg | clearance [7]: 0.06 L/h/kg | half-life [8]: 2.5 h | half-life [9]: 4.3 h | half-life [10]: 2.5 h | half-life [11]: 4.3 h | Stability [12]: 94% | Stability [13]: 52.8% | Activity [14]: inactive | Activity [15]: inactive | IC50 [16]: 30 µM | IC50 [17]: 0.12 µM | logD at 0.5 h [18]: 2.1 | fraction unbound [19]: 0.017 | hepatocyte CLint [20]: 6 µL/min/1e6 cells | inhibition at 10 µM (CYP2D6): < 25% | inhibition at 10 µM (CYP2C9): < 25% | inhibition at 10 µM (CYP2C19): < 25% | solubility thermodynamic at 24 h [21]: > 3000 µM
Compound: CSc1nc(N2C[C@@H]3[C@H](C2)[C@H]3C(=O)O)ccc1C(=O)NC12CC3CC(CC(C3)C1)C2
Activity (L5178Y): Non-toxic | inhibition (Mus musculus): Active
